Two molecules from ChEMBL document CHEMBL1129204, “Synthesis of ribofuranosyl glycosides of echiguanines A and B, inhibitors of phosphatidylinositol 4-kinase” (Bioorg Med Chem Lett, 1996) can be followed below.

Test [1] concerns the target T1, Phosphatidylinositol 4-kinase, PI4K (Homo sapiens, UniProt Q9BTU6+Q8TCG2+Q9UBF8+P42356). The test is described as follows: Inhibition of phosphatidylinositol 4-kinase at 100 ug/ml (weak inhibition). The format is protein assay.
The target of test [2] is T1, Phosphatidylinositol 4-kinase, PI4K. Kind of test: Inhibition of phosphatidylinositol 4-kinase. Format: protein assay.

≈ marks a conversion by molar mass, not a printed value.

As a reminder, the IC50 is the concentration needed to halve the response being measured. Higher therefore signals lower potency. Turning to `N=C(N)CCNC(=O)c1cn(C2O[C@H](CO)C(O)[C@H]2O)c2nc(N)nc(O)c12` (single isomer, unassigned), the IC50 entry in test [1] is recorded as “weak inhibition”.

For the molecule `N=C(N)CCNC(=O)c1c[nH]c2nc(N)nc(O)c12` [ECHIGUANINE A], in test [2], the IC50 stood at 0.03 µg/mL (≈ 0.114 µM).
